Tests used:
Assay type in all cases: physicochemical
[1] = Determining water solubility (pH 7 buffer, HPLC of supernatant); conditions: for Concentration measured by HPLC after treatment: pH 7 buffer
Method: A stock pH 7 buffer solution was prepared by adding aqueous sodium hydroxide solution (0.1 M, 145 mL) to aqueous potassium dihydrogen phosphate solution (0.1 M, 250 mL), and then adding sufficient distilled water to adjust the final volume to 500 mL. At least 1 time and up to about 5 times the amount of halosulfuron-methyl needed for saturation was added to a mixing vessel containing stock buffer solution at the test temperature (e.g., 20° C.). The mixture was magnetically stirred in the dark while being maintained at the test temperature. Samples were periodically removed for analysis. The samples were centrifuged using a high speed, temperature-controlled centrifuge at the test temperature for about 20 minutes at ≧12000 G to remove suspended particles. An aliquot of each supernatant was taken for analysis.
The concentration of halosulfuron-methyl in the supernatant was determined by a high pressure liquid chromatography (HPLC) with a reversed phase chromatography column and UV detection. […] Samples were successively withdrawn from the mixing vessel and analyzed until three successive samples show little or no variation in concentration. The test is preferably replicated to ensure accuracy.

[2] = Cleanout test (residual halosulfuron-methyl extracted from bottle with acetonitrile); conditions: lower rating = more effective cleanout
Method: The test was conducted by dispersing in water a sample to produce a concentration that is normally used when applying the herbicide: 25% halosulfuron-methyl. The sample was added to tap water (300 mL) in a 400 mL beaker and magnetically stirred for 2 minutes. The mixture was then stirred for 2 minutes, whereupon the resulting dispersion was dispensed in three 100 mL aliquots to 4-oz (118 mL) polyethylene bottles. The bottles were capped, inverted twice and allowed to stand overnight.
After standing overnight, each individual bottle was inverted twice and the liquid contents were then poured out. Tap water (10 mL) was added and the bottle was inverted until all sediment was re-suspended, whereupon the contents were poured out. Tap water (100 mL) was added and the bottle was inverted twice and then allowed to stand undisturbed for 10 minutes. The bottle was inverted twice more and the contents were poured out. Acetonitrile (10 mL) was added to the bottle to extract any remaining material. The acetonitrile solution was analyzed by reversed-phase liquid chromatography with UV detection. The cleanout rating (the concentration of halosulfuron-methyl herbicide in the acetonitrile solution) is reported in % in Table 6 below.

[3] = Viscosity (stated finding, no method given)
[4] = OD formulation, measured vs original concentration 40%
[5] = OD formulation, original concentration 40%
[6] = SG formulation, measured vs original concentration 25%
[7] = SG formulation, original concentration 25%
[8] = WG formulation, measured vs original concentration 25%
[9] = WG formulation, original concentration 25%

Structure (SMILES) | Solubility [1, 4] | Concentration measured by HPLC after treatment [1, 5] | Solubility [1, 6] | Concentration measured by HPLC after treatment [1, 7] | Solubility [1, 8] | Concentration measured by HPLC after treatment [1, 9] | Cleanout rating (concentration of halosulfuron-methyl in the acetonitrile solution) ([2]; OD formulation) | Cleanout rating (concentration of halosulfuron-methyl in the acetonitrile solution) ([2]; SG formulation) | Cleanout rating (concentration of halosulfuron-methyl in the acetonitrile solution) ([2]; WG formulation) | viscosity (in words) ([3]; listed as halosulfuron-methyl in amorphous state) | solubility (in words) ([1]; compared with amorphous halosulfuron-methyl) | viscosity (in words) ([3]; listed as crystalline modification I of halosulfuron-methyl)
COC(=O)c1c(Cl)nn(C)c1S(=O)(=O)NC(=O)Nc1nc(OC)cc(OC)n1 [Amorphous halosulfuron-methyl, methyl 3-chloro-5-(4,6-dimethoxypyrimidin-2-ylcarbamoylsulfamoyl)-1-methylpyrazole-4-carboxylate, reference compound] | 35% | 14% | 60% | 15% | 48% | 12% | 26% | 10% | 13% | highly viscous | – | –
COC(=O)c1c(Cl)nn(C)c1S(=O)(=O)NC(=O)Nc1nc(OC)cc(OC)n1 [Halosulfuron-methyl, crystalline modification I] [methyl 3-chloro-5-(4,6-dimethoxypyrimidin-2-ylcarbamoylsulfamoyl)-1-methylpyrazole-4-carboxylate] | 88% | 35% | 99.6% | 24.9% | 92% | 23% | 5% | 0.1% | 2% | – | significant increase | decrease

— patent publication US9617247B1, “Form of halosulfuron-methyl, a process for its preparation and use of the same” (priority 2015, dated 2017)
